Source: US20060099157A1, “Ether alcohols used as solvents and emulsifiers and dispersions containing said ether alcohols” (IFAC GmbH & Co. KG, priority 2002, published 2006)

Columns and labels:
[1] = Mixing of the ether alcohol solution into C12-C15-alcohol benzoate, stability of the resulting system; type: physicochemical; conditions: for miscibility of the solution with C12-C15-alcohol benzoate: solution in polyethylene glycol monomethyl ether (7 EO)
Method: At room temperature (25° C.), a storage time of more than 7 days was determined without resulting in flocculation or phase separation.
(§1) Salicylic acid was dissolved at room temperature in polyethylene glycol monomethyl ether (7 EO). A solution was accessible which comprised more than 10% by weight of salicylic acid in the acid form. The solution could be introduced in any fractions into C12-C15-alcohol benzoate without resulting in precipitation of the salicylic acid.

[2] = Solution in polyethylene glycol monomethyl ether (7 EO); type: physicochemical; conditions: dissolved in polyethylene glycol monomethyl ether (7 EO), room temperature, based on the total solution
Source text: A solution was accessible which, based on the total solution, comprised 60% by weight of the light protection agent.
The light protection agent 2-hydroxy-4-methoxybenzophenone (benzophenone-3) could be dissolved at room temperature in polyethylene glycol monomethyl ether (7 EO), the fraction of light protection agent in the solution being more than 30% by weight.
2-Hydroxy-4-methoxybenzophenone-5-sulfonic acid could be dissolved in polyethylene glycol monomethyl ether (7 EO), the resulting solution comprising more than 10% by weight of the light protection agent. The per se water-soluble light protection agent could be introduced into an oil phase as polyethylene glycol monomethyl ether (7 EO) solution so that it could be used in this formulation as oil-soluble light protection filter.
as §1

[3] = cited from earlier work

Row | storage time without flocculation or phase separation ([1]; 60% strength solution in C12-C15-alcohol benzoate, room temperature (25° C.)) | miscibility of the solution with C12-C15-alcohol benzoate [1] | fraction of the compound in the accessible solution [2] | SMILES | fraction of light protection agent in solutions hitherto accessible [3]
1 | more than 7 days | any mixing ratios | 60 % by weight | CCCCC(CC)COC(=O)c1ccc(Nc2nc(Nc3ccc(C(=O)OCC(CC)CCCC)cc3)nc(Nc3ccc(C(=O)OCC(CC)CCCC)cc3)n2)cc1 (centres unmarked) [2,4,6-trianilino-p-(carbo-2′-ethylhexyl-1′-oxy)-1,3,5-triazine] | –
2 | – | – | more than 30 % by weight | COc1ccc(C(=O)c2ccccc2)c(O)c1 [2-hydroxy-4-methoxybenzophenone] | at most 20 % by weight
3 | – | any fractions | more than 10 % by weight | O=C(O)c1ccccc1O [Salicylic acid, reference compound] | –

Row | SMILES | storage time without flocculation or phase separation ([1]; 60% strength solution in C12-C15-alcohol benzoate, room temperature (25° C.)) | miscibility of the solution with C12-C15-alcohol benzoate [1] | fraction of the compound in the accessible solution [2] | fraction of light protection agent in solutions hitherto accessible [3]
4 | COc1cc(O)c(C(=O)c2ccccc2)cc1S(=O)(=O)O [2-Hydroxy-4-methoxybenzophenone-5-sulfonic acid] | – | – | more than 10 % by weight | –
